The EC50 is the concentration giving half of the maximal effect. Broadly, the Emax is the size of the effect at its maximum, as opposed to the concentration needed.

The structures appear in SMILES notation.

The target in the assay is human orexin type 2 receptor (hOX2R) (Homo sapiens (Human), UniProt O43614). In words: Measurement of orexin type 2 receptor agonist activity (Experimental Example 2-1, FLIPR TETRA, intracellular Ca2+). The assay is classed as cell-based. The note with it: CHO dhfr- cells expressing hOX2R; for Emax: read-out: Emax (%); for Emax at 30 µM: value at 30 uM concentration, orexin B as full agonist = 100%.

Where [1] appears, read: agonist activity, 10 nM human orexin B = 100%.

human orexin type 2 receptor (hOX2R), sequence (O43614 whole entry): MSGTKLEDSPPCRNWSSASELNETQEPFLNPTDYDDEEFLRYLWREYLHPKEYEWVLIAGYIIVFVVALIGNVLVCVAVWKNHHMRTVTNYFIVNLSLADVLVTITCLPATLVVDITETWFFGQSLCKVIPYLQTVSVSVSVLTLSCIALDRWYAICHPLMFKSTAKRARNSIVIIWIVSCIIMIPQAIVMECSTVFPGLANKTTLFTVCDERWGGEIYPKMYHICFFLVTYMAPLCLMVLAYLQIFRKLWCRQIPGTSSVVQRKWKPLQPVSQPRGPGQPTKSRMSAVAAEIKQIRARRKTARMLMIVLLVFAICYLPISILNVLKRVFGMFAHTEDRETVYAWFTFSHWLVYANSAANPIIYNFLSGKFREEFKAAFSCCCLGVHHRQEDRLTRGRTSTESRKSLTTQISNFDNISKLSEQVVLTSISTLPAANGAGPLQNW

For `COc1cccc([C@H]2CC[C@@H](OC[C@H]3[C@@H](NS(C)(=O)=O)CCCN3C(=O)C3CC3)CC2)c1` [Example 304, N-((2R,3S)-1-(cyclopropylcarbonyl)-2-(((cis-4-(3-methoxyphenyl)cyclohexyl)oxy)-methyl)piperidin-3-yl)methanesulfonamide], where the note is “FLIPR TETRA, Fluo-4AM”, a half-maximal effect (EC50) was put at 23 nM and the Emax worked out at 105%.
Taken in the same sequence, the figures for `CS(=O)(=O)N[C@H]1CCCN[C@H]1CO[C@H]1CC[C@@H](c2ccccc2Cl)CC1` (relative stereo) [Example 332, N-(cis-2-(((cis-4-(2-chlorophenyl)cyclohexyl)oxy)-methyl)piperidin-3-yl)methanesulfonamide] were 610 nM and 93%.
Taken in the same sequence, the figures for `CCNC(=O)N1CCC[C@H](NS(C)(=O)=O)[C@@H]1CO[C@H]1CC[C@@H](c2cccc(C#N)c2)CC1` (relative stereo) [Example 254, cis-2-(((cis-4-(3-cyanophenyl)cyclohexyl)oxy)methyl)-N-ethyl-3-((methylsulfonyl)amino)piperidine-1-carboxamide] were 88 nM and 105%.
In turn, `CC(C)[C@H]1CC[C@@H](OC[C@H]2[C@@H](NS(C)(=O)=O)CCCN2C(=O)C2CN(S(C)(=O)=O)C2)CC1` (relative stereo) [Example 90, N-(cis-2-(((cis-4-isopropylcyclohexyl)oxy)methyl)-1-((1-(methylsulfonyl)azetidin-3-yl)carbonyl)piperidin-3-yl)methanesulfonamide] showed an Emax at 30 µM of 74%. Moreover, under setting [1], the midpoint of the response, the EC50, lay at 2800 nM.
Taken in the same sequence, the figures for `CCNC(=O)N1CCC[C@H](NS(C)(=O)=O)[C@@H]1CO[C@H]1CC[C@@H](c2ccccc2F)CC1` (relative stereo) [Example 117, cis-N-ethyl-2-(((cis-4-(2-fluorophenyl)cyclohexyl)oxy)-methyl)-3-((methylsulfonyl)amino)piperidine-1-carboxamide] were 91% and 0.12 nM.
Consider `CCNC(=O)N1CCC[C@H](NS(C)(=O)=O)[C@@H]1CO[C@H]1C[C@@H](c2ccccc2)C1` (relative stereo) [Example 113, cis-N-ethyl-3-((methylsulfonyl)amino)-2-(((cis-3-phenylcyclobutyl)oxy)methyl)piperidine-1-carboxamide], for which the maximal effect (Emax) at 30 µM worked out at 93%. The compound also came in with an EC50 under setting [1] of 59 nM.
`CC(C)[C@H]1CC[C@@H](OC[C@H]2[C@@H](NS(C)(=O)=O)CCCN2C(=O)N2CCCC2)CC1` (relative stereo) [Example 39, N-(cis-2-(((cis-4-isopropylcyclohexyl)oxy)methyl)-1-(pyrrolidin-1-ylcarbonyl)piperidin-3-yl)methanesulfonamide] displayed an Emax at 30 µM of 93%. The compound also registered an EC50 under setting [1] of 940 nM.
`CC(=O)N1CCC[C@H](NS(=O)(=O)C(F)(F)F)[C@@H]1CO[C@H]1CC[C@@H](C(C)C)CC1` (relative stereo) [Example 80, N-(cis-1-acetyl-2-(((cis-4-isopropylcyclohexyl)oxy)methyl)piperidin-3-yl)-1,1,1-trifluoromethanesulfonamide] registered an Emax at 30 µM of 98%. Under setting [1], this compound had an EC50 of 660 nM.
Turning to `CS(=O)(=O)N[C@H]1CCCN(C(=O)[C@@H]2CCC(=O)O2)[C@H]1CO[C@H]1CC[C@@H](c2ccccc2)CC1` [Example 184, N-((2R,3S)-1-(((2S)-5-oxotetrahydrofuran-2-yl)carbonyl)-2-(((cis-4-phenylcyclohexyl)oxy)methyl)piperidin-3-yl)methanesulfonamide], for the setting “FLIPR TETRA, Fluo-4AM”, a half-maximal effect (EC50) was put at 9.3 nM and the Emax worked out at 93%.
In the case of `CC(C)[C@H]1CC[C@@H](OC[C@H]2[C@@H](NS(C)(=O)=O)CCCN2S(=O)(=O)c2cccnc2)CC1` (relative stereo) [Example 66, N-(cis-2-(((cis-4-isopropylcyclohexyl)oxy)methyl)-1-(pyridin-3-ylsulfonyl)piperidin-3-yl)methanesulfonamide], the Emax at 30 µM amounted to 87%. Also, the EC50 under setting [1] turned out to be 3800 nM.
Taken in the same sequence, the figures for `CC(C)[C@H]1CC[C@@H](OC[C@H]2[C@@H](NS(C)(=O)=O)CCCN2C(=O)C2CC(O)C2)CC1` (stereo partly drawn) [Example 92, N-((2R,3S)-1-((3-hydroxycyclobutyl)carbonyl)-2-(((cis-4-isopropylcyclohexyl)oxy)methyl)piperidin-3-yl)methanesulfona] were 92% and 370 nM.
Take `CS(=O)(=O)N[C@H]1CCCN(C(=O)C2CCOCC2)[C@H]1CO[C@H]1CC[C@@H](c2ccccc2)CC1` (relative stereo) [Example 121, N-(cis-2-(((cis-4-phenylcyclohexyl)oxy)methyl)-1-(tetrahydro-2H-pyran-4-ylcarbonyl)piperidin-3-yl)methanesulfonamide]: for the setting “FLIPR TETRA, Fluo-4AM”, the midpoint of the response, the EC50, lay at 8.8 nM and the Emax is 111%.
On to `CC(C)OC(=O)N1CCC[C@H](NS(C)(=O)=O)[C@@H]1COC1CCN(c2ncccn2)CC1` (relative stereo) [Example 255, isopropyl cis-3-((methylsulfonyl)amino)-2-(((1-(pyrimidin-2-yl)piperidin-4-yl)oxy)methyl)piperidine-1-carboxylate], for which, for the setting “FLIPR TETRA, Fluo-4AM”, a half-maximal effect (EC50) was put at 8.1 nM and the Emax was 102%.
As to `CS(=O)(=O)N[C@H]1CCCN(C(=O)[C@H]2CCOC2)[C@H]1CO[C@H]1CC[C@@H](c2ccccc2)CC1` [Example 149, N-(cis-2-(((cis-4-phenylcyclohexyl)oxy)methyl)-1-((3S)-tetrahydrofuran-3-ylcarbonyl)piperidin-3-yl)methanesulfonamide], where the note is “FLIPR TETRA, Fluo-4AM”, the EC50 was determined as 25 nM and the Emax came to 100%.
`CC(C)[C@H]1CC[C@@H](OC[C@H]2[C@@H](NS(C)(=O)=O)CCCN2C(=O)NCC(F)(F)F)CC1` (relative stereo) [Example 98, cis-2-(((cis-4-isopropylcyclohexyl)oxy)methyl)-3-((methylsulfonyl)amino)-N-(2,2,2-trifluoroethyl)piperidine-1-carboxamide] returned an Emax at 30 µM of 107%.
Take `CS(=O)(=O)N[C@H]1CCCN(C(=O)NCC#N)[C@H]1CO[C@H]1CC[C@@H](c2ccccc2)CC1` (relative stereo) [Example 179, cis-N-(cyanomethyl)-3-((methylsulfonyl)amino)-2-(((cis-4-phenylcyclohexyl)oxy)methyl)piperidine-1-carboxamide]: for the setting “FLIPR TETRA, Fluo-4AM”, a half-maximal response (EC50) required 0.31 nM and the Emax was determined as 100%.
In the case of `CC(C)[C@H]1CC[C@@H](OC[C@H]2[C@@H](NS(C)(=O)=O)CCCN2S(C)(=O)=O)CC1` (relative stereo) [Example 36, N-(cis-2-(((cis-4-isopropylcyclohexyl)oxy)methyl)-1-(methylsulfonyl)piperidin-3-yl)methanesulfonamide], the Emax at 30 µM is 74%.
Regarding `CC(=O)N1CCC[C@H](NS(C)(=O)=O)[C@@H]1CO[C@H]1CC[C@@H](c2ccccc2)CC1` [Example 4, N-((2R,3S)-1-acetyl-2-(((cis-4-phenylcyclohexyl)oxy)methyl)piperidin-3-yl)methanesulfonamide], the Emax at 30 µM is 106%. For the same compound, a half-maximal effect under setting [1] (EC50) was put at 44 nM.
Regarding `CCNC(=O)N1CCC[C@H](NS(C)(=O)=O)[C@@H]1COC1CCC(OC)CC1` (relative stereo) [Example 126, cis-N-ethyl-2-(((4-methoxycyclohexyl)oxy)methyl)-3-((methylsulfonyl)amino)piperidine-1-carboxamide], where the note is “FLIPR TETRA, Fluo-4AM”, a half-maximal response (EC50) required 2600 nM and the Emax came to 85%.
Take `CCNC(=O)N1CCC[C@H](NS(C)(=O)=O)[C@@H]1COC1CCC(c2ccccc2)C1` (relative stereo) [Example 339, cis-N-ethyl-3-((methylsulfonyl)amino)-2-(((3-phenylcyclopentyl)oxy)methyl)-piperidine-1-carboxamide]: where the note is “FLIPR TETRA, Fluo-4AM”, the EC50 came to 11 nM and the Emax came to 101%.
For `CCNC(=O)N1CCC[C@H](NS(C)(=O)=O)[C@@H]1CO[C@H]1CC[C@@H](c2cccc(C(F)(F)F)c2)CC1` (relative stereo) [Example 207, cis-N-ethyl-3-((methylsulfonyl)amino)-2-(((cis-4-(3-(trifluoromethyl)phenyl)cyclohexyl)oxy)methyl)piperidine-1-carboxamide] the same measures were 26 nM and 110%.
For `CS(=O)(=O)N[C@H]1CCCN(C(=O)C2CC2)[C@H]1COC1CCN(c2ccccc2)CC1` (relative stereo) [Example 247, N-(cis-1-(cyclopropylcarbonyl)-2-(((1-phenylpiperidin-4-yl)oxy)methyl)piperidin-3-yl)methanesulfonamide] the same measures were 960 nM and 102%.
In the case of `CCNC(=O)N1CCC[C@H](NS(C)(=O)=O)[C@@H]1CO[C@H]1CC[C@@H](C(F)(F)F)CC1` (relative stereo) [Example 107, cis-N-ethyl-3-((methylsulfonyl)amino)-2-(((cis-4-(trifluoromethyl)cyclohexyl)oxy)methyl)piperidine-1-carboxamide], the Emax at 30 µM is 75%. Also, under setting [1], the EC50 was 120 nM.
Turning to `COc1cccc([C@H]2CC[C@@H](OC[C@@H]3NCCC[C@@H]3NS(C)(=O)=O)CC2)c1` (relative stereo) [Example 269, N-(cis-2-(((cis-4-(3-methoxyphenyl)cyclohexyl)oxy)methyl)piperidin-3-yl)methanesulfonamide], under “FLIPR TETRA, Fluo-4AM”, the EC50 worked out at 3000 nM and the Emax was determined as 95%.
The compound `CC(C)[C@H]1CC[C@@H](OC[C@H]2[C@@H](NS(C)(=O)=O)CCCN2C(=O)Cn2cnccc2=O)CC1` (relative stereo) [Example 93, N-(cis-2-(((cis-4-isopropylcyclohexyl)oxy)methyl)-1-((6-oxopyrimidin-1(6H)-yl)acetyl)piperidin-3-yl)methanesulfonamide] gave an Emax at 30 µM of 84%. Under setting [1], the response was half-maximal at 2300 nM (EC50).

These data come from patent US10287305B2, “Substituted piperidine compound and use thereof” (Takeda Pharmaceutical Company Limited, priority 2016, dated 2019).
